Experiments:
[1] = Oral bioavailability in Beagle dog at 2 mg/kg; type: ADME, organism-based, Canis lupus familiaris; conditions: in vivo
[2] = target: T1, Retinoblastoma-associated protein (Homo sapiens) (UniProt P06400); assay: Inhibition of Rb phosphorylation in human MCF7 cells incubated for 24 to 48 hrs by In-cell western assay; type: cell-based; conditions: dose 100-500 nM, time 24-48 hrs
T1 sequence (whole entry): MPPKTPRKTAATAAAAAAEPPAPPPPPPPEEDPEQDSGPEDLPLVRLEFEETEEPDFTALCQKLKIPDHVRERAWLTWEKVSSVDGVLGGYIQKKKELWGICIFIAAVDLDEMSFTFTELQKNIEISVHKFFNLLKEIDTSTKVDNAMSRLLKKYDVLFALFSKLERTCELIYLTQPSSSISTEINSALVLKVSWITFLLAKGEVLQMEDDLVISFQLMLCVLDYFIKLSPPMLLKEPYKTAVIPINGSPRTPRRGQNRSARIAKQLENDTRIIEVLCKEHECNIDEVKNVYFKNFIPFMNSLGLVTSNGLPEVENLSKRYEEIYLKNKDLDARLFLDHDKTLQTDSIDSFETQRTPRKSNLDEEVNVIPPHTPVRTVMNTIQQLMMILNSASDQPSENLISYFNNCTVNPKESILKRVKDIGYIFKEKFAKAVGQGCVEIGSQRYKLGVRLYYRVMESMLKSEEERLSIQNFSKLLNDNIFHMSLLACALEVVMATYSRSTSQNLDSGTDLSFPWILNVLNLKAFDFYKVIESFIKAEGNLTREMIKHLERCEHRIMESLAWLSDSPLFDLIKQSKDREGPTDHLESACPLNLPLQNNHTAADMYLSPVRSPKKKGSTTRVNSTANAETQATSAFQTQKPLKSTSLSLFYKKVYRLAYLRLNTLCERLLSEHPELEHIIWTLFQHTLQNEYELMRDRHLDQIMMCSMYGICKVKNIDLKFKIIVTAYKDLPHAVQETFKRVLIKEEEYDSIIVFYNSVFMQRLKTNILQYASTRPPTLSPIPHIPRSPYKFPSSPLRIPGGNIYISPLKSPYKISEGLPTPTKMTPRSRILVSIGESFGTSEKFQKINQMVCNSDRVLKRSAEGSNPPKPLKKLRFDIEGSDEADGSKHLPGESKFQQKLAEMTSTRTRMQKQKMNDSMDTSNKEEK

[3] = system: BXPC-3; assay: Inhibition of cell proliferation in human BXPC-3 cells at 0.3 uM incubated for 72 hrs by Cell Titer Glo assay relative to control; type: functional
[4] = system: SW-620; assay: Inhibition of cell proliferation in human SW620 cells at 0.3 uM incubated for 72 hrs by Cell Titer Glo assay relative to control; type: functional
[5] = system: MCF7; assay: Antitumor activity against human MCF7 cells xenografted in mouse at 15 mg/kg, po qd for 3 weeks relative to control; type: functional; conditions: MCF7, 504 h, read-out: TGI
[6] = Plasma protein in mouse assessed as unbound fraction; type: ADME, cell-free
[7] = Plasma protein in monkey assessed as unbound fraction; type: ADME, cell-free, Macaca mulatta; conditions: rhesus monkey
[8] = AUC (0 to last) in Beagle dog at 2 mg/kg, po; type: ADME, organism-based, Canis lupus familiaris; conditions: in vivo
[9] = system: T47D; assay: Inhibition of cell proliferation in human T47D cells at 0.3 uM incubated for 72 hrs by Cell Titer Glo assay relative to control; type: functional
[10] = target: Cytochrome P450 2D6 (Homo sapiens, UniProt P10635); assay: Inhibition of CYP2D6 (unknown origin) using […] as substrate; type: ADME
[11] = system: CAL-27; assay: Inhibition of cell proliferation in human CAL-27 cells at 0.3 uM incubated for 72 hrs by Cell Titer Glo assay relative to control; type: functional
[12] = Volume of distribution at steady state in Beagle dog at 0.6 mg/kg, iv; type: ADME, organism-based, Canis lupus familiaris; conditions: in vivo, read-out: Vdss
[13] = Volume of distribution at steady state in Sprague-Dawley rat at 1 mg/kg, iv; type: ADME, organism-based; conditions: in vivo, read-out: Vdss
[14] = system: MCF7; assay: Antitumor activity against human MCF7 cells xenografted in mouse at 5 mg/kg, po qd for 3 weeks relative to control; type: functional; conditions: MCF7, 504 h, read-out: TGI
[15] = Half life in Beagle dog at 0.6 mg/kg, iv; type: ADME, organism-based, Canis lupus familiaris; conditions: in vivo
[16] = system: DU-145; assay: Inhibition of cell proliferation in human DU-145 cells at 0.3 uM incubated for 72 hrs by Cell Titer Glo assay relative to control; type: functional
[17] = Lipophilicity, logD of compound at pH 7.4 in Octanol buffer; type: physicochemical
[18] = target: Voltage-gated inwardly rectifying potassium channel KCNH2 (Homo sapiens, UniProt Q12809); assay: Inhibition of hERG; type: toxicity
[19] = system: MCF7; assay: Induction of cell cycle arrest at S phase in Rb-proficient human MCF7 cells at 0.16 uM (reference value: 19.19 %); type: functional
[20] = Permeability across apical to basal side in human Caco-2 cells; type: ADME, cell-based; conditions: read-out: permeability
[21] = system: MV4-11; assay: Inhibition of cell proliferation in human MV4-11 cells at 0.3 uM incubated for 72 hrs by Cell Titer Glo assay relative to control; type: functional
[22] = system: MIA PaCa-2; assay: Inhibition of cell proliferation in human MIA PaCa-2 cells at 0.3 uM incubated for 72 hrs by Cell Titer Glo assay relative to control; type: functional
[23] = Oral bioavailability in Sprague-Dawley rat at 6 mg/kg; type: ADME, organism-based; conditions: in vivo
[24] = system: NCI-H460; assay: Inhibition of cell proliferation in human NCI-H460 cells at 0.3 uM incubated for 72 hrs by Cell Titer Glo assay relative to control; type: functional
[25] = system: SK-MEL-28; assay: Inhibition of cell proliferation in human SK-MEL-28 cells at 0.3 uM incubated for 72 hrs by Cell Titer Glo assay relative to control; type: functional
[26] = Aqueous solubility of compound at pH <=4.5; type: physicochemical
[27] = Intrinsic clearance in CD-1 mouse at 0.5 mg/kg, iv; type: ADME, organism-based; conditions: in vivo
[28] = system: MCF7; assay: Induction of cell cycle arrest at G2 phase in Rb-proficient human MCF7 cells at 0.16 uM (reference value: 24.74 %); type: functional
[29] = system: MDA-MB-436; assay: Induction of cell cycle arrest at S phase in Rb-deficient human MDA-MB-436 cells at 0.16 uM (reference value: 22.47 %); type: functional
[30] = system: SNU1; assay: Inhibition of cell proliferation in human SNU1 cells at 0.3 uM incubated for 72 hrs by Cell Titer Glo assay relative to control; type: functional
[31] = target: Cytochrome P450 3A4 (Homo sapiens, UniProt P08684); assay: Inhibition of CYP3A4 (unknown origin) using midazolam as substrate; type: ADME
[32] = system: A673; assay: Inhibition of cell proliferation in human A673 cells at 0.3 uM incubated for 72 hrs by Cell Titer Glo assay relative to control; type: functional
[33] = Toxicity in mouse xenografted with human PDX ES-06-0130 cells assessed as body weight change at 40 mg/kg, po qd for 3 weeks relative to control; type: organism-based; conditions: in vivo, 504 h
[34] = Plasma protein in human assessed as unbound fraction; type: ADME, cell-free
[35] = system: KG-1; assay: Inhibition of cell proliferation in human KG-1 cells at 0.3 uM incubated for 72 hrs by Cell Titer Glo assay relative to control; type: functional

Chain of Voltage-gated inwardly rectifying potassium channel KCNH2 (Q12809 whole entry): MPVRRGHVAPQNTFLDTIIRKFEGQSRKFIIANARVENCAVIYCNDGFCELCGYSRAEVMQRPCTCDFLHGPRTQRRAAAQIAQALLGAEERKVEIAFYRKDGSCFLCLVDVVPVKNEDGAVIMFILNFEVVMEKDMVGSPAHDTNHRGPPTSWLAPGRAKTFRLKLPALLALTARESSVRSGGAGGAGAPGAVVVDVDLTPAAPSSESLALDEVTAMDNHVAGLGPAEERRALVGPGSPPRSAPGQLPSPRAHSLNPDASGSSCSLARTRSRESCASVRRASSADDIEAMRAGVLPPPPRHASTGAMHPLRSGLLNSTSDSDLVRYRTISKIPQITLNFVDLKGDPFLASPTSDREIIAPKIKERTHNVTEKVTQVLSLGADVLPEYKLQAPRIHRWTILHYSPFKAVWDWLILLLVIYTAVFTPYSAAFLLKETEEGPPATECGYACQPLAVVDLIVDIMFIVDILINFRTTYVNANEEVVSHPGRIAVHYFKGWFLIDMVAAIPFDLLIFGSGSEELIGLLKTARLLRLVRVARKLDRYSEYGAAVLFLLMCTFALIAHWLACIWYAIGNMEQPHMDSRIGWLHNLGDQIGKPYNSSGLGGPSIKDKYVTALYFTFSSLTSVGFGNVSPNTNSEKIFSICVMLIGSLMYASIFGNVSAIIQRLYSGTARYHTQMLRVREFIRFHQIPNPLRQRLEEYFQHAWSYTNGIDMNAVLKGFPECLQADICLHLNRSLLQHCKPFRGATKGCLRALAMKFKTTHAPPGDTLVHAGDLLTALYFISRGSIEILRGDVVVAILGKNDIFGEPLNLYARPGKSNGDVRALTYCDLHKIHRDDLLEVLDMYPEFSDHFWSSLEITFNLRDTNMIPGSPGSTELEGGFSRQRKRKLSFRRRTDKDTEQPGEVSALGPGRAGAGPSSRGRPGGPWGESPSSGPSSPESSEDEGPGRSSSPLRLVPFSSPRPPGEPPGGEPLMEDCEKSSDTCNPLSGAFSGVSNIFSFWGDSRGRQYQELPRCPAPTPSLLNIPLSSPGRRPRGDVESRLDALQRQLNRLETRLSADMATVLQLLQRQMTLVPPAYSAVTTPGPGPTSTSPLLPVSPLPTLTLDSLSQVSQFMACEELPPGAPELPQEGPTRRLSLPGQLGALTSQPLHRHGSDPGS
Chain of Cytochrome P450 2D6 (P10635 whole entry): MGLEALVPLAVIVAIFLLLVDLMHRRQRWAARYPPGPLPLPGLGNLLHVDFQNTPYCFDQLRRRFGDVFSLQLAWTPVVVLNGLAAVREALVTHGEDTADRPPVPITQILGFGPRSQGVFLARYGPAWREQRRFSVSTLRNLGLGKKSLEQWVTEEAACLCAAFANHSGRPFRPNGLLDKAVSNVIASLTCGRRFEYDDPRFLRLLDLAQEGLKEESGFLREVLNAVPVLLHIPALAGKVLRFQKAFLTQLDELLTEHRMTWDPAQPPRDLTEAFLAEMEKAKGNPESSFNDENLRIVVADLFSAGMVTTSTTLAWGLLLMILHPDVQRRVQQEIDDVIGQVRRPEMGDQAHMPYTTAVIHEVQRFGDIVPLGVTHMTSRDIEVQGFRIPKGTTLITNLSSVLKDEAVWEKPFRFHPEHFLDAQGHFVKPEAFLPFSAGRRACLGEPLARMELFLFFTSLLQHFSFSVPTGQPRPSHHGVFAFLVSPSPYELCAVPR
Chain of Cytochrome P450 3A4 (P08684 whole entry): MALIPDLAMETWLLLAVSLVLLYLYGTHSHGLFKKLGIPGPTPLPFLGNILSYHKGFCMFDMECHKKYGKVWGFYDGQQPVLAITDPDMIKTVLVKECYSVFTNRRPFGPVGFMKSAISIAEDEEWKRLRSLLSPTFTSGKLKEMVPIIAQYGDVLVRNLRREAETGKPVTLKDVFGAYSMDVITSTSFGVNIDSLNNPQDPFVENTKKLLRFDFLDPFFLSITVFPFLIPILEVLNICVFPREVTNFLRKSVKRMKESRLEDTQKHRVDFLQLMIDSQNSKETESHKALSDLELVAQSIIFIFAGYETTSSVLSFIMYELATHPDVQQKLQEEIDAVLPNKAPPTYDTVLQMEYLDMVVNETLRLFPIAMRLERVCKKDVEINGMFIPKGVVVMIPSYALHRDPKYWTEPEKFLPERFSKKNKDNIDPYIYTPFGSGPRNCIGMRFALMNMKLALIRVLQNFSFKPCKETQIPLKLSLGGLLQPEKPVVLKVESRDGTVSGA

bioavailability [1]: 56%
inhibition [2]: Dose-Dependent Effect
fraction unbound [6]: 0.026
fraction unbound [7]: 0.061
AUC(0-t) [8]: 1.24 µM·h
IC50 [10]: > 50 µM
Vd [12]: 17.1 L/kg
Vd [13]: 11 L/kg
half-life [15]: 7.8 h
logD [17]: 2.4
Papp A→B [20]: 0.4 ×10⁻⁶ cm/s
bioavailability [23]: 74.9%
solubility [26]: > 2000 µg/mL
CL [27]: 31.3 mL/min/kg
IC50 [31]: > 50 µM
fraction unbound [34]: 0.08
SMILES: CC(C)c1c2cc(-c3nc(Nc4ccc(N5CCNCC5)cn4)ncc3F)ccc2nn1C [CULMERCICLIB]
inhibition at 0.3 µM [3]: 23.1%
inhibition at 0.3 µM [4]: 55.1%
inhibition in vivo at 15 mg/kg [5]: 93%
inhibition at 0.3 µM [9]: 36.6%
inhibition at 0.3 µM [11]: 0.6%
inhibition in vivo at 5 mg/kg [14]: 68%
inhibition at 0.3 µM [16]: 27.3%
IC50 [18]: 5.3 µM
Activity [19]: 5.91%
inhibition at 0.3 µM [21]: 71.1%
inhibition at 0.3 µM [22]: 48%
inhibition at 0.3 µM [24]: 50.4%
inhibition at 0.3 µM [25]: 13.7%
Activity [28]: 24.73%
Activity [29]: 26.1%
inhibition at 0.3 µM [30]: 55.4%
inhibition at 0.3 µM [32]: -4.1%
Activity [33]: < 10%
inhibition in vivo at 0.3 µM [35]: 61.1%

— ChEMBL document CHEMBL5550128, “Discovery and preclinical evaluations of TQB3616, a novel CDK4-biased inhibitor” (Bioorg Med Chem Lett, 2024)
